Test results: paper PMC5540250, “Influence of the Number of Axial Bexarotene Ligands on the Cytotoxicity of Pt(IV) Analogs of Oxaliplatin” (Bioinorganic Chemistry and Applications, 2017)
Where two headings read alike, the source gives them in different places.

Legend:
[1] = tested on: colon carcinoma SW480 cells; assay: MTT cytotoxicity test, 72 h, SW480; format: cell-based, human; settings: mean ± standard deviation from 3 independent experiments
Method: (§1) The MCF7, MCF7D (gift of N. I. Moiseeva), HaCat, A549, and SW480 cell lines were cultured in Dulbecco modified Eagle's medium (DMEM; PanEco, Russia) with 10% fetal bovine serum (HyClone, USA) and antibiotics (PanEco, Russia) in 5% CO2, 37°C. The compounds were predissolved at 20 mM in dimethyl sulfoxide (DMSO) and added to the cell culture at the required concentration with maximum DMSO content of 0.5 v/v%. Cells in 96-well plates (7 × 10^3 cells/well) were treated with various concentrations of 3, 4, cisplatin, or bexarotene at 37°C for 72 h. Cell viability was determined using the MTT assay as follows: cells were incubated at 37°C for 4 h with 20 μl of 5 mg/ml solution of 3-(4,5-dimethylthiazol-2-yl)-2,5 diphenyltetrazolium bromide (Sigma-Aldrich, St. Louis, USA). The supernatant was discarded and formazan was dissolved in 150 μl of DMSO. The optical density of the solution was measured at 550 nm on a multiwell plate reader (Multiskan FC, Thermo Fisher Scientific, USA). The percentage of viable (i.e., MTT converting) cells was calculated from the absorbance of untreated cells (100%). Each experiment was repeated three times, and each concentration was tested in three replicates.
(§2) The cytotoxicity of complexes 3 and 4, bexarotene, and cisplatin was evaluated in the human MCF7 breast cancer cell line and its doxorubicin/cisplatin resistant subline MCF7D, as well as against colon carcinoma SW480 cells, non-small cell lung carcinoma A549, and immortalized human nonmalignant keratinocyte HaCat cell line using the colorimetric MTT-test after 72 h of incubation (Table 1). The cytotoxic potency of oxaliplatin, the Pt(II) precursor of the new complexes, was taken from literature.

[2] = tested on: non-small cell lung carcinoma A549; assay: MTT cytotoxicity test, 72 h, A549; format: cell-based, human; settings: A549 cells, mean ± standard deviation from 3 independent experiments
Method: as §1, §2

[3] = tested on: human MCF7 breast cancer cell line; assay: MTT cytotoxicity test, 72 h, MCF7; format: cell-based; settings: MCF7 cells, mean ± standard deviation from 3 independent experiments
Method: as §1, §2

[4] = tested on: doxorubicin/cisplatin resistant subline MCF7D; assay: MTT cytotoxicity test, 72 h, MCF7D; format: cell-based, human; settings: MCF7D cells (doxorubicin/cisplatin resistant), mean ± standard deviation from 3 independent experiments
Method: as §1, §2

[5] = tested on: immortalized human nonmalignant keratinocyte HaCat cell line; assay: MTT cytotoxicity test, 72 h, HaCat; format: cell-based; settings: HaCat nonmalignant keratinocytes, mean ± standard deviation from 3 independent experiments
Method: as §1, §2

[6] = tested on: colon carcinoma SW480 cells; design: method as in PMID 22331606; settings: taken from literature; cited from earlier work
[7] = tested on: non-small cell lung carcinoma A549; design: method as in PMID 22331606; settings: A549 cells; taken from literature; cited from earlier work
[8] = tested on: human MCF7 breast cancer cell line; design: method as in PMID 22213516; settings: MCF7 cells; taken from literature; cited from earlier work

Question: Which results are given for “(OC-6-44)-acetato(trans-1R,2R-Diamineocyclohexane)-4-(1-(3,5,5,8,8-pentamethyl-5,6,7,8-tetrahydro-2-naphthyl)vinyl)benzoato)oxalatoplatinum(IV) [Complex 4]”?
Answer: IC50 [1]: 11 ± 1.6 µM; IC50 [2]: 10 ± 1 µM; IC50 [3]: 0.47 ± 0.07 µM; IC50 MCF7 [3]: submicromolar range; IC50 [4]: 4.8 ± 0.5 µM; IC50 [5]: 8 ± 1.3 µM

Question: With `C=C(c1ccc(C(=O)O)cc1)c1cc2c(cc1C)C(C)(C)CCC2(C)C` [Bexarotene, 4-(1-(3,5,5,8,8-pentamethyl-5,6,7,8-tetrahydro-2-naphthyl)vinyl)benzoic acid] as the compound, how does the IC50 ([1]; Homo sapiens) read?
Answer: 80 ± 10 µM

Question: What about the IC50 ([2]; Homo sapiens) of the same compound?
Answer: 85 ± 9 µM

Question: What about the IC50 ([3]; Homo sapiens) of the same compound?
Answer: 67 ± 13 µM

Question: And the IC50 ([4]; Homo sapiens)?
Answer: 71 ± 21 µM

Question: And the IC50 ([5]; Homo sapiens)?
Answer: > 90 µM

Question: With “(OC-6-33)-(trans-1R,2R-Diaminocyclohexane)-bis(4-(1-(3,5,5,8,8-pentamethyl-5,6,7,8-tetrahydro-2-naphthyl)vinyl)benzoato)oxalatoplatinum(IV) [Complex 3]” as the compound, how does the IC50 [1] read?
Answer: > 100 µM

Question: And the IC50 [2]?
Answer: 83 ± 16 µM

Question: What about the IC50 [3] of the same compound?
Answer: > 100 µM

Question: What about the IC50 [4] of the same compound?
Answer: > 100 µM

Question: What about the IC50 [5] of the same compound?
Answer: > 100 µM

Question: Which IC50 [1] does the source give for `N.N.[Cl][Pt][Cl]` [Cisplatin] here?
Answer: 14 ± 4.4 µM

Question: What about the IC50 [2] of the same compound?
Answer: 29 ± 10 µM

Question: What about the IC50 [3] of the same compound?
Answer: 14 ± 7 µM

Question: What about the IC50 [4] of the same compound?
Answer: 75 ± 5.8 µM

Question: What about the IC50 [5] of the same compound?
Answer: 30 ± 10 µM

Question: What does the source list for `O=C(O)C(=O)O.[NH-][C@@H]1CCCC[C@H]1[NH-].[Pt+2]` [Oxaliplatin]?
Answer: IC50 [6]: 0.9 ± 0.3 µM; IC50 [7]: 11.5 ± 3.9 µM; IC50 [8]: 43.8 µM
